Columns and labels:
[1] = system: Candida parapsilosis ATCC 90018; assay type: cell-based; settings: pH 7.4
[2] = system: C. parapsilosis ATCC 90018; assay type: cell-based, Candida parapsilosis; settings: n = 3
bacteria = settings: cited from earlier work

Substance	antimicrobial activity (viable count) with Zn2+ [1]	antimicrobial activity (viable count) without Zn2+ [1]	antimicrobial activity in RDA at low pH versus normal pH [2]	antimicrobial activity in RDA with versus without Zn2+ [2]	antibacterial activity in physiological buffers and plasma (bacteria)	cell permeabilization (LDH release) (HaCaT keratinocytes)
AHHAHAAHHAHAAHHAHAAHHAHA [AHH24, previously described H-rich control peptide]	dose-dependent killing	showed no antimicrobial activity	showed enhanced activity at low pH	significantly enhanced		
GHHPHGHHPHGHHPHGHHPH [GHH20, H-rich control peptide derived from histidine-rich glycoprotein]	dose-dependent killing	showed no antimicrobial activity	showed enhanced activity at low pH	significantly enhanced		
GKRKKKGKGLGKKRDPCLRKYK [GKR22]					retain antibacterial activity in physiological buffers as well as in plasma	
HKHGHGHGKHKNKGKKNGKH [HKH20, kininogen-derived antimicrobial peptide]					retain antibacterial activity in physiological buffers as well as in plasma	
LL-37: classical human antimicrobial cathelicidin peptide, benchmark						less active

Source: article PMC2752989 (PLoS ONE, 2009)
